Experimental data taken from article PMC11784839, “Monoaminergic neurotransmitters are bimodal effectors of tau aggregation” (Science Advances, 2025).

Target: tau (Homo sapiens, UniProt P10636)
Experiment: MCE Phenols Library screening, tau biosensor cell seeding assay (AvZ)
Format: cell-based
Conditions: for Z repl 1 / Z Repl 2: Z score; for Z repl 1 / raw data 1: replicate 1; for Z Repl 2 / raw data 2: replicate 2; for AvZ (average z score of seeding, SDs from the mean level of seeding): 10 μM phenol in cell cultures, AD brain homogenate preincubated 16 hours, two biological replicates, positive = catalyzes seeding, negative = inhibits
[1] = average Z score of the two replicates, MCE Phenols Library screen
[2] = average puncta of the two replicates
[3] = average Z score of the two replicates, tau biosensor seeding, MCE Phenols Library screen
[4] = average Z score of two replicates, Phenols Library screen
[5] = average Z score of the two replicates, tau seeding

tau, sequence (P10636 623-695 limits assumed): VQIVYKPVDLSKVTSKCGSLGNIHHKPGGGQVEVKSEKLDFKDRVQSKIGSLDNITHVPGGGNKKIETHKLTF

SMILES	Z repl 1	Z Repl 2	av Z [1]	av puncta [2]	raw data 1 (puncta)	raw data 2 (puncta)	av Z [3]	av puncta (average of raw data 1 and 2)	av Z [4]	av Z [5]	AvZ (average z score of seeding, SDs from the mean level of seeding)	raw data 1 (raw puncta)	raw data 2 (raw puncta)
COc1c(O[C@@H]2O[C@H](CO)[C@@H](O)[C@H](O)[C@H]2O)cc2c(c1O)C(=O)c1c(cc(C)c(O)c1OC)C2=O [Aurantio-obtusin ?-D-glucoside]	-0.961	-0.271	-0.616	12342.8	14810.1	9875.55							
O=c1c(O[C@@H]2O[C@@H](CO)[C@H](O)[C@H]2O)c(-c2ccc(O)c(O)c2)oc2cc(O)cc(O)c12 [Avicularin]	1.115	1.158			39734.3	25129.7	1.136	32432					
COc1cc(O)c2c(=O)c(OC)c(-c3ccc(OC)c(O)c3)oc2c1 [Ayanin]	-1.206	-0.903	-1.054		11871.6	3125.17		7498.38					
O=c1c(O[C@@H]2O[C@H](CO)[C@@H](O)[C@H](O)[C@H]2O[C@@H]2O[C@H](CO)[C@@H](O)[C@H](O)[C@H]2O)c(-c2ccc(O)c(O)c2)oc2cc(O)cc(O)c12 [Baimaside]	1.152	0.927			40179	22670.4	1.04	31424.7					
COc1ccc(-c2oc3c(CC=C(C)C)c(O)cc(O)c3c(=O)c2O[C@@H]2O[C@@H](C)[C@H](O)[C@@H](O)[C@H]2O)cc1 [Baohuoside I]	0.959	1.521			37856.1	29012.8	1.24	33434.4					
CC(C)=CCc1cc(C(=O)/C=C/c2ccc(O)cc2)c(O)cc1O [Bavachalcone]	-0.876	-0.134	-0.505	13584.6	15835.9	11333.2							
CC(C)=CCc1cc2c(cc1O)O[C@H](c1ccc(O)cc1)CC2=O [Bavachin]	-0.343	-0.767	-0.555	13401.9	22229.8	4573.9							
COc1ccc2cc3[n+](cc2c1O)CCc1cc2c(cc1-3)OCO2.[Cl-] [Berberrubine (chloride)]	0.031	-0.189			26719.5	10748.8		18734.2	-0.079				
COc1c(O)cc2c(c1O)[C@@H]1O[C@H](CO)[C@@H](O)[C@H](O)[C@H]1OC2=O [Bergenin]	0.275	-0.537			29646.8	7026.42		18336.6	-0.131				
CC(=O)OC(C)(C)CC(=O)O[C@H](CC=C(C)C)C1=CC(=O)c2c(O)ccc(O)c2C1=O [Beta-Acetoxyisovalerylshikonin]	-0.24	0.548			23464.1	18618.6		21041.3		0.154			
O=C(/C=C/c1ccc(O)cc1)CC(=O)/C=C/c1ccc(O)cc1 [Bisdemethoxycucurmin]	0.602	-0.122			33572.4	11461.3		22516.9		0.24			
CC(C)(c1ccc(O)cc1)c1ccc(O)cc1 [Bisphenol A]	0.124	0.085			27836.8	13670.7		20753.8	0.104				
COc1cc(O)c2c(c1)O[C@H](c1cc(O)cc(O)c1)CC2=O [Blumeatin]	-0.753	-0.754	-0.753	11011.8	17305.9	4717.73							
Oc1ccc2c(c1)OC[C@]1(O)Cc3cc(O)c(O)cc3[C@H]21 [Brazilin]	-0.564	-0.743	-0.654	12203.7	19572.7	4834.73							
O=C1CC(C(=O)O)c2c1oc(=O)c1cc(O)c(O)c(O)c21 (stereo not drawn) [Brevifolincarboxylic acid]	-1.001	-1.013	-1.007		14330.3	1949.4		8139.85					
O=C(/C=C/c1ccc(O)c(O)c1)c1ccc(O)cc1O [Butein]	-0.211	0.15			23813.7	14367.8		19090.8	-0.031				
O=C(/C=C/c1ccc(O)c(O)c1)OCCc1ccccc1 [Caffeic acid phenethyl ester]	-0.979	-0.394	-0.686	11579.1	14598.6	8559.5							
O=C(/C=C/c1ccc(O)c(O)c1)O[C@@H](C(=O)O)[C@@H](O)C(=O)O [Caftaric acid]	-0.317	-0.61		14397.2	22545.7	6248.57					-0.464		
O=C(/C=C/c1ccc(O)c(O)c1)OC[C@H]1O[C@@H](OCCc2ccc(O)c(O)c2)[C@H](O)[C@@H](O)[C@@H]1O [Calceolarioside B]	0.11	-0.703	-0.297	16462.2								27671.5	5252.85
COc1ccc(-c2coc3cc(O[C@@H]4O[C@H](CO)[C@@H](O)[C@H](O)[C@H]4O)ccc3c2=O)cc1O [Calycosin-7-O-?-D-glucoside]	0.722	1.127			35020	24797.2	0.924	29908.6					
COc1ccc(-c2coc3cc(O)ccc3c2=O)cc1O [Calycosin]	0.387	-0.53			30989.7	7102.22		19046	-0.072				
COc1cc(CNC(=O)CCCC/C=C/C(C)C)ccc1O [Capsaicin, reference compound]	0.025	-0.661		16179.6							-0.318	26653.4	5705.75
COc1cc(O)cc(O)c1C(=O)/C=C/c1ccccc1 [Cardamonin]	-0.394	0.139			21621.9	14251.5		17936.7	-0.127				
CC(C)c1cc2c(c(O)c1O)[C@@]13CCCC(C)(C)[C@@H]1C[C@@H]2OC3=O [Carnosol]	0.436	-0.449			31586	7974.93		19780.5	-0.006				
Cc1ccc(C(C)C)cc1O [Carvacrol]	0.54	1.419			32834.5	27917.7		30376.1			0.979		
Oc1cc(O)c2c(c1)O[C@H](c1ccc(O)c(O)c1)[C@@H](O)C2 [Catechin]	-0.542	-0.523	-0.532	13513.8	19846.5	7181.16							
